From ChEMBL document CHEMBL1909281, “FDA-approved drug labeling for the study of drug-induced liver injury” (Drug Discov Today, 2011)

Assays:
[1] = system: Hepatotoxicity; assay: FDA Liver Toxicity Knowledge Base Benchmark Dataset (LTKB-BD) drugs of most concern for DILI
[2] = system: Hepatotoxicity

Molecule | LTKB_BD DILI severity score [2] | also measured
O=C(O)Cc1ccccc1Nc1c(Cl)cccc1Cl [DICLOFENAC] |  | LTKB_BD DILI severity score ([1]; Liver): 7
CC(=O)N1CCN(c2ccc(OCC3COC(Cn4ccnc4)(c4ccc(Cl)cc4Cl)O3)cc2)CC1 (stereo not drawn) [KETOCONAZOLE] |  | LTKB_BD DILI severity score [1]: 8
CS(=O)(=O)OCCCCOS(C)(=O)=O [BUSULFAN] |  | LTKB_BD DILI severity score [1]: 8
O=C1CN(/N=C/c2ccc([N+](=O)[O-])o2)C(=O)N1 [NITROFURANTOIN] |  | LTKB_BD DILI severity score ([1]; Liver): 8
O=C1NC(=O)C(c2ccccc2)(c2ccccc2)N1 [PHENYTOIN] |  | LTKB_BD DILI severity score ([2]; Liver): 3
CC(C)(S)[C@@H](N)C(=O)O [PENICILLAMINE] | 3 | 
Clc1ccccc1C(c1ccccc1)(c1ccccc1)n1ccnc1 [CLOTRIMAZOLE] | 3 | 
CC(C)c1nc(CN(C)C(=O)N[C@H](C(=O)N[C@@H](Cc2ccccc2)C[C@H](O)[C@H](Cc2ccccc2)NC(=O)OCc2cncs2)C(C)C)cs1 [RITONAVIR] |  | LTKB_BD DILI severity score [1]: 5
CN(C)CCCN1c2ccccc2CCc2ccccc21 [IMIPRAMINE] | 3 | 
CC(C)OC(=O)C(C)(C)Oc1ccc(C(=O)c2ccc(Cl)cc2)cc1 [FENOFIBRATE] | 3 | 
Nc1nc2c(ncn2COCCO)c(=O)[nH]1 [ACYCLOVIR] | 5 | 
CCC1=C(C)CN(C(=O)NCCc2ccc(S(=O)(=O)NC(=O)N[C@H]3CC[C@H](C)CC3)cc2)C1=O [GLIMEPIRIDE] | 7 | 
CC(C)(C)NC(=O)[C@@H]1C[C@@H]2CCCC[C@@H]2CN1C[C@@H](O)[C@H](Cc1ccccc1)NC(=O)[C@H](CC(N)=O)NC(=O)c1ccc2ccccc2n1 |  | LTKB_BD DILI severity score ([2]; Liver): 3
COC1=CC(=O)C[C@@H](C)[C@]12Oc1c(Cl)c(OC)cc(OC)c1C2=O [GRISEOFULVIN] | 3 | 
CC[C@H](C)C(=O)O[C@H]1C[C@H](O)C=C2C=C[C@H](C)[C@H](CC[C@@H](O)C[C@@H](O)CC(=O)O)[C@H]21 [PRAVASTATIN] | 3 | 
C=CC[C@@H]1/C=C(\C)C[C@H](C)C[C@H](OC)[C@H]2O[C@@](O)(C(=O)C(=O)N3CCCC[C@H]3C(=O)O[C@H](/C(C)=C/[C@@H]3CC[C@@H](O)[C@H](OC)C3)[C@H](C)[C@@H](O)CC1=O)[C@H](C)C[C@@H]2OC [TACROLIMUS ANHYDROUS] | 5 | 
CC(C)(O)c1ccccc1CC[C@@H](SCC1(CC(=O)O)CC1)c1cccc(/C=C/c2ccc3ccc(Cl)cc3n2)c1 [MONTELUKAST] | 3 | 
Fc1ccc([C@@H]2CCNC[C@H]2COc2ccc3c(c2)OCO3)cc1 [PAROXETINE] | 8 | 
CC(=O)CC(c1ccccc1)c1c(O)c2ccccc2oc1=O (stereo not drawn) [WARFARIN] | 5 | 
C=C(CC)C(=O)c1ccc(OCC(=O)O)c(Cl)c1Cl [ETHACRYNIC ACID] | 5 | 
CC(C)NCC(O)COc1ccc(COCCOC(C)C)cc1 (stereo not drawn) [BISOPROLOL] | 3 | 

Molecule | LTKB_BD DILI severity score [2] | also measured
O=C(CCCN1CCC(O)(c2ccc(Cl)cc2)CC1)c1ccc(F)cc1 [HALOPERIDOL] | 5 | 
CC(C(=O)O)c1ccc(-c2ccccc2)c(F)c1 (stereo not drawn) [FLURBIPROFEN] | 3 | 
CCc1ccc(CCOc2ccc(CC3SC(=O)NC3=O)cc2)nc1 (stereo not drawn) [PIOGLITAZONE] | 3 | 
Cc1ccc(C)c(OCCCC(C)(C)C(=O)O)c1 [GEMFIBROZIL] | 3 | 
Cc1cccc(C)c1OCC(C)N (stereo not drawn) [MEXILETINE] |  | LTKB_BD DILI severity score ([2]; Liver): 3
CN(C)c1nc(N(C)C)nc(N(C)C)n1 [ALTRETAMINE] | 2 | 
CC(C)NCC(O)COc1cccc2ccccc12 (stereo not drawn) [PROPRANOLOL] | 3 | 
CN(C)c1ccc(O)c2c1C[C@H]1C[C@H]3[C@H](N(C)C)C(O)=C(C(N)=O)C(=O)[C@@]3(O)C(O)=C1C2=O [MINOCYCLINE] | 2 | 
CC(NC(C)(C)C)C(=O)c1cccc(Cl)c1 (stereo not drawn) [BUPROPION] | 5 | 
CN(C)[C@@H]1C(O)=C(C(N)=O)C(=O)[C@@]2(O)C(O)=C3C(=O)c4c(O)cccc4[C@@](C)(O)[C@H]3C[C@@H]12 [TETRACYCLINE] | 2 | 
COc1ccc2cc([C@H](C)C(=O)O)ccc2c1 [NAPROXEN] |  | LTKB_BD DILI severity score ([2]; Liver): 3
Nc1nc(O)c2ncn(COC(CO)CO)c2n1 [GANCICLOVIR] | 7 | 
NC(=O)c1ncn([C@@H]2O[C@H](CO)[C@@H](O)[C@H]2O)n1 [RIBAVIRIN] | 7 | 
CNCCC(Oc1ccc(C(F)(F)F)cc1)c1ccccc1 (stereo not drawn) [FLUOXETINE] | 3 | 
CC(C)Cc1ccc(C(C)C(=O)O)cc1 (stereo not drawn) [IBUPROFEN] | 3 | 
O[C@@H]1CO[C@H]2[C@@H]1OC[C@@H]2O [ISOSORBIDE] | 3 | 
NC(N)=Nc1nc(CSCCC(N)=NS(N)(=O)=O)cs1 [FAMOTIDINE] |  | LTKB_BD DILI severity score ([2]; Liver): 3
CN1CCN(C2=Nc3cc(Cl)ccc3Nc3ccccc32)CC1 [CLOZAPINE] | 2 | 
O=C1CC2(CCCC2)CC(=O)N1CCCCN1CCN(c2ncccn2)CC1 [BUSPIRONE] | 3 | 
C[C@H]1c2cccc(O)c2C(=O)C2=C(O)[C@]3(O)C(=O)C(C(N)=O)=C(O)[C@@H](N(C)C)[C@@H]3[C@@H](O)[C@@H]21.O [DOXYCYCLINE] | 3 | 
C[C@]12C=CC(=O)C=C1CC[C@@H]1[C@@H]2[C@@H](O)C[C@@]2(C)[C@H]1CC[C@]2(O)C(=O)CO [PREDNISOLONE] | 3 | 

Molecule | LTKB_BD DILI severity score [2] | also measured
CCC1(c2ccccc2)C(=O)NC(=O)NC1=O [PHENOBARBITAL] | 3 | 
C[C@]12CC[C@@H]3c4ccc(O)cc4CC[C@H]3[C@@H]1CC[C@@H]2O [ESTRADIOL] | 2 | 
CNC(=C[N+](=O)[O-])NCCSCc1ccc(CN(C)C)o1 [RANITIDINE] | 5 | 
O=c1n(CCCN2CCN(c3cccc(Cl)c3)CC2)nc2ccccn12 [TRAZODONE] | 5 | 
C[C@@H]1C[C@H]2[C@@H]3CCC4=CC(=O)C=C[C@]4(C)[C@@]3(F)[C@@H](O)C[C@]2(C)[C@@]1(O)C(=O)CO [DEXAMETHASONE] | 3 | 
C[C@H](CS)C(=O)N1CCC[C@H]1C(=O)O [CAPTOPRIL] | 6 | 
O=P1(NCCCl)OCCCN1CCCl (stereo not drawn) [IFOSFAMIDE] | 4 | 
CNC(=C[N+](=O)[O-])NCCSCc1csc(CN(C)C)n1 [NIZATIDINE] | 5 | 
O=NN(CCCl)C(=O)NCCCl [CARMUSTINE] | 3 | 
CN1CCN(CCCN2c3ccccc3Sc3ccc(C(F)(F)F)cc32)CC1 [TRIFLUOPERAZINE] | 2 | 
COCCc1ccc(OCC(O)CNC(C)C)cc1 (stereo not drawn) [METOPROLOL] | 5 | 
CCN(CC)CCCC(C)Nc1ccnc2cc(Cl)ccc12 (stereo not drawn) [CHLOROQUINE] | 3 | 
CN/C(=N/CCSCc1nc[nH]c1C)NC#N [CIMETIDINE] |  | LTKB_BD DILI severity score ([2]; Liver): 2
CNCCCN1c2ccccc2CCc2ccccc21 [DESIPRAMINE] |  | LTKB_BD DILI severity score ([2]; Liver): 3
O=P1(N(CCCl)CCCl)NCCCO1 (stereo not drawn) [CYCLOPHOSPHAMIDE ANHYDROUS] |  | LTKB_BD DILI severity score ([2]; Liver): 5
COc1ccc(C(CN(C)C)C2(O)CCCCC2)cc1 (stereo not drawn) [VENLAFAXINE] | 7 | 
CN1C(C(=O)Nc2ccccn2)=C(O)c2ccccc2S1(=O)=O [PIROXICAM] | 3 | 
COC(=O)Nc1nc2ccc(C(=O)c3ccccc3)cc2[nH]1 [MEBENDAZOLE] | 3 | 
CCOC(=O)C(C)(C)Oc1ccc(Cl)cc1 [CLOFIBRATE] | 3 | 
CN(C)CCCN1c2ccccc2Sc2ccc(Cl)cc21 [CHLORPROMAZINE] | 2 | 
O=C([O-])c1cc(=O)c2c(OCC(O)COc3cccc4oc(C(=O)[O-])cc(=O)c34)cccc2o1.[Na+].[Na+] [CROMOLYN SODIUM] | 3 | 

Molecule | LTKB_BD DILI severity score [2] | also measured
CCCNC(=O)NS(=O)(=O)c1ccc(Cl)cc1 [CHLORPROPAMIDE] | 2 | 
Clc1cccc(Cl)c1N=C1NCCN1 [CLONIDINE] |  | LTKB_BD DILI severity score ([2]; Liver): 3
O=C(c1ccccc1)c1ccc2n1CCC2C(=O)O (stereo not drawn) [KETOROLAC] | 3 | 
COc1ccc2c(c1)c(CC(=O)O)c(C)n2C(=O)c1ccc(Cl)cc1 [INDOMETHACIN] | 3 | 
Oc1ncnc2[nH]ncc12 [ALLOPURINOL] | 3 | 
COC(=O)C1=C(C)NC(C)=C(C(=O)OC)C1c1ccccc1[N+](=O)[O-] [NIFEDIPINE] | 3 | 
CCOC(=O)[C@H](CCc1ccccc1)N[C@@H](C)C(=O)N1CCC[C@H]1C(=O)O | 4 | 
NC(=O)c1cnccn1 [PYRAZINAMIDE] | 3 | 
CC(=O)S[C@@H]1CC2=CC(=O)CC[C@]2(C)[C@H]2CC[C@@]3(C)[C@@H](CC[C@@]34CCC(=O)O4)[C@H]12 [SPIRONOLACTONE] | 2 | 
NC12CC3CC(CC(C3)C1)C2 [AMANTADINE] | 3 | 
COc1cc2c(c(OC)c1OC)-c1ccc(OC)c(=O)cc1[C@@H](NC(C)=O)CC2 [COLCHICINE] | 6 | 
CC1=C(/C=C/C(C)=C/C=C/C(C)=C\C(=O)O)C(C)(C)CCC1 [ISOTRETINOIN] | 2 | 
CC1(C)S[C@@H]2[C@H](NC(=O)[C@H](N)c3ccc(O)cc3)C(=O)N2[C@H]1C(=O)O [AMOXICILLIN] | 3 | 
CN[C@H]1CC[C@@H](c2ccc(Cl)c(Cl)c2)c2ccccc21 [SERTRALINE] |  | LTKB_BD DILI severity score ([2]; Liver): 3
CN(C)[C@@H]1C(O)=C(C(N)=O)C(=O)[C@@]2(O)C(O)=C3C(=O)c4c(O)cccc4[C@@](C)(O)[C@H]3[C@H](O)[C@@H]12 [OXYTETRACYCLINE] | 2 | 
CARBOPLATIN | 3 | 
CNCCCC12CCC(c3ccccc31)c1ccccc12 [MAPROTILINE] |  | LTKB_BD DILI severity score ([2]; Liver): 5
CCOC(=O)C1=C[C@@H](OC(CC)CC)[C@H](NC(C)=O)[C@@H](N)C1 [OSELTAMIVIR] | 3 | 
CN(C)CCOc1ccc(/C(=C(/CCCl)c2ccccc2)c2ccccc2)cc1 [TOREMIFENE] | 3 | 
Cn1cnc([N+](=O)[O-])c1Sc1ncnc2nc[nH]c12 [AZATHIOPRINE] |  | LTKB_BD DILI severity score ([2]; Liver): 3
